Test results published in ChEMBL document CHEMBL1201862, “PubChem BioAssay data set” (2004).
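Cells were grown in 96-well plates and exposed to each compound for 48 hours at five concentrations; endpoints were interpolated linearly between bracketing concentrations, or set to the highest concentration if not reached. GI50 = concentration required for 50% inhibition of growth.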 The source made the active and inactive calls. No stated cut-off is given here; in the data, active = GI50 up to about 1.1 µM and inactive = higher.

What was measured:
Test in all cases: inhibition of tumour cell growth, NCI panel, 48 h
SF-295 = tested on: SF-295
CCRF-CEM = tested on: CCRF-CEM
HOP-62 = tested on: HOP-62
DMS-273 = tested on: DMS-273
M14 = tested on: M14
UACC-62 = tested on: UACC-62
IGROV-1 = tested on: IGROV-1
KM12 = tested on: KM12
OVCAR-5 = tested on: OVCAR-5
SK-MEL-28 = tested on: SK-MEL-28
NCI-H226 = tested on: NCI-H226
COLO 205 = tested on: COLO 205
SR = tested on: SR
NCI-H522 = tested on: NCI-H522
NCI-H460 = tested on: NCI-H460
ACHN = tested on: ACHN
XF498 = tested on: XF498
EKVX = tested on: EKVX
CAKI-1 = tested on: CAKI-1
HCT-15 = tested on: HCT-15
DLD-1 = tested on: DLD-1
RPMI-8226 = tested on: RPMI-8226
SK-MEL-5 = tested on: SK-MEL-5
DMS-114 = tested on: DMS-114
OVCAR-3 = tested on: OVCAR-3
HCT-116 = tested on: HCT-116
SF-539 = tested on: SF-539
RXF 393 = tested on: RXF 393
OVCAR-4 = tested on: OVCAR-4
HOP-92 = tested on: HOP-92
KM-20L2 = tested on: KM-20L2
UO-31 = tested on: UO-31
Malme-3M = tested on: Malme-3M
SW-620 = tested on: SW-620
A549 = tested on: A549
HL-60 = tested on: HL-60
786-0 = tested on: 786-0
SK-MEL-2 = tested on: SK-MEL-2
TK-10 = tested on: TK-10
HT-29 = tested on: HT-29
LXFL 529 = tested on: LXFL 529
SNB-75 = tested on: SNB-75
SNB-78 = tested on: SNB-78
K562 = tested on: K562
SNB-19 = tested on: SNB-19
LOX IMVI = tested on: LOX IMVI
U-251 = tested on: U-251
M19-MEL = tested on: M19-MEL
MOLT-4 = tested on: MOLT-4
NCI-H23 = tested on: NCI-H23
HCC 2998 = tested on: HCC 2998
A498 = tested on: A498
OVCAR-8 = tested on: OVCAR-8
SF-268 = tested on: SF-268
SK-OV-3 = tested on: SK-OV-3
SN12C = tested on: SN12C

Structure (SMILES): CC(=O)OC1CC2C(C)(C)OC(=O)CC(OC(C)=O)[C@]2(C)C2CCC3(C)C(=CCC3c3ccoc3)[C@]12C (stereo partly specified)
- GI50 (SF-295): 18 µM (inactive)
- GI50 (CCRF-CEM): 18.2 µM (inactive)
- GI50 (HOP-62): 24 µM (inactive)
- GI50 (DMS-273): 13.7 µM (inactive)
- GI50 (M14): 18.9 µM (inactive)
- GI50 (UACC-62): 22.2 µM (inactive)
- GI50 (IGROV-1): 24.5 µM (inactive)
- GI50 (KM12): 30.6 µM (inactive)
- GI50 (OVCAR-5): 32.8 µM (inactive)
- GI50 (SK-MEL-28): 94.6 µM (inactive)
- GI50 (NCI-H226): 14.9 µM (inactive)
- GI50 (COLO 205): 14.1 µM (inactive)
- GI50 (SR): 8.15 µM (inactive)
- GI50 (NCI-H522): 15.6 µM (inactive)
- GI50 (NCI-H460): 21.4 µM (inactive)
- GI50 (ACHN): 25.1 µM (inactive)
- GI50 (XF498): 13.8 µM (inactive)
- GI50 (EKVX): 15.5 µM (inactive)
- GI50 (CAKI-1): 31.3 µM (inactive)
- GI50 (HCT-15): 26.2 µM
- GI50 (DLD-1): 13 µM (inactive)
- GI50 (RPMI-8226): 18.2 µM (inactive)
- GI50 (SK-MEL-5): 21.4 µM (inactive)
- GI50 (DMS-114): 19.6 µM (inactive)
- GI50 (OVCAR-3): 16.2 µM (inactive)
- GI50 (HCT-116): 14.4 µM (inactive)
- GI50 (SF-539): 26.8 µM (inactive)
- GI50 (RXF 393): 24 µM (inactive)
- GI50 (OVCAR-4): 46.5 µM (inactive)
- GI50 (HOP-92): 6.32 µM (inactive)
- GI50 (KM-20L2): 28.1 µM (inactive)
- GI50 (UO-31): 23.9 µM (inactive)
- GI50 (Malme-3M): 25.6 µM (inactive)
- GI50 (SW-620): 32.1 µM (inactive)
- GI50 (A549): 19.4 µM (inactive)
- GI50 (HL-60): 16.1 µM (inactive)
- GI50 (786-0): 19.4 µM (inactive)
- GI50 (SK-MEL-2): 10.9 µM (inactive)
- GI50 (TK-10): 49 µM (inactive)
- GI50 (HT-29): 15.7 µM (inactive)
- GI50 (LXFL 529): 13.9 µM (inactive)
- GI50 (SNB-75): 18.3 µM (inactive)
- GI50 (SNB-78): 48.9 µM (inactive)
- GI50 (K562): 14 µM (inactive)
- GI50 (SNB-19): 14.3 µM (inactive)
- GI50 (LOX IMVI): 28.7 µM (inactive)
- GI50 (U-251): 37.6 µM (inactive)
- GI50 (M19-MEL): 17.5 µM (inactive)
- GI50 (MOLT-4): 5.9 µM (inactive)
- GI50 (NCI-H23): 27.2 µM (inactive)
- GI50 (HCC 2998): 18.4 µM (inactive)
- GI50 (A498): 17.6 µM (inactive)
- GI50 (OVCAR-8): 18.1 µM (inactive)
- GI50 (SF-268): 21.1 µM (inactive)
- GI50 (SK-OV-3): 21.7 µM (inactive)
- GI50 (SN12C): 32.6 µM (inactive)
